Results on seven compounds are retold here after publication PMC6473159, “Potent Inhibition of Zika Virus Replication by Aurintricarboxylic Acid” (Frontiers in Microbiology, 2019).

Data set [1] is described as follows: Cell viability assay (CellTiter 96), Vero cells. The class given is cell-based, African green monkey. The following applies: African green monkey; for CC50 at 36 h: 36 h post-treatment; for CC50 at 72 h: 72 h post-treatment. The protocol: (§1) Cell viability in Vero and A549 cells was measured using the CellTiter 96 Non-Radioactive Cell Proliferation assay (Promega) following the manufacturer’s instructions. […] Plates were incubated at 37°C in a 5% CO2 atmosphere for 36 or 72 h. Samples were treated with 15 μl of Dye Solution and incubated at 37°C in a 5% CO2 atmosphere for 4 h. Next, cells were treated with 100 μl of Solubilization Solution/Stop Mix and absorbance at 570 nm was measured using a Vmax kinetic microplate reader (Molecular Devices, Waltham, MA, United States). Viability of compound-treated cells was calculated as a percentage relative to values obtained with DMSO-treated cells. Non-linear regression curves and the median cytotoxic concentration (CC50) were calculated using GraphPad Prism software version 8.0.

The nature of data set [2]: Cell viability assay (CellTiter 96), A549 cells. The following applies: human; for CC50 at 36 h: 36 h post-treatment; for CC50 at 72 h: 72 h post-treatment. The data set is classed as cell-based, human. The protocol:
as §1

Data set [3] has as its system ZIKV Paraiba/2015. Put plainly: Microplaque reduction assay, ZIKV Paraiba/2015 in Vero cells, post-infection treatment. The class given is cell-based. As to conditions: for selectivity ratio at 36 h: African green monkey, Vero cells infected with ZIKV Paraiba/2015, Paraiba/2015, Vero cells, read-out: SI (selective index, CC50/IC50); for IC50: Zika virus, Vero.
The subject of data set [4] is ZIKV Paraiba/2015. The data set is described as follows: Microplaque reduction assay, ZIKV Paraiba/2015 in A549 cells, post-infection treatment. The class given is cell-based. As to conditions: for IC50: Zika virus, A549, 36 h; for selectivity ratio at 36 h: human, A549 cells infected with ZIKV Paraiba/2015, Paraiba/2015, A549 cells, post-treatment, read-out: SI (selective index, CC50/IC50). (In general: Plaques are areas of infected cells; plaque reduction assays count them against a control.)

A further data set deals with Vero cells. The data set is described as follows: Cell viability assay (CellTiter 96), Vero cells. The data set is classed as cell-based, African green monkey. The following applies: 36 or 72 h post-treatment, up to highest concentration tested (1,000 μM). How it is done: as §1
A further data set has as its system A549 cells. Put plainly: Cell viability assay (CellTiter 96), A549 cells. The class given is cell-based, human. The following applies: 36 or 72 h post-treatment, up to highest concentration tested (1,000 μM). How it is done: as §1
For data set [5], the system named is ZIKV Paraiba/2015. Put plainly: Microplaque reduction assay, pre-treatment of Vero cells before ZIKV Paraiba/2015 infection. The data set is classed as cell-based. As to conditions: for IC50: Zika virus, Vero, fixed 36 h p.i.
Data set [6] deals with ZIKV Paraiba/2015. The data set is described as follows: Virus growth kinetics, ZIKV Paraiba/2015 in Vero cells. The class given is cell-based, Zika virus. The protocol: (§2) At 12, 24, 48, and 72 h post-infection (h p.i.), tissue culture supernatants were collected and titrated on Vero cells by immunostaining as described previously ([Marquez-Jurado et al., 2018]).
(§3) Dotted line indicates the limit of detection (20 FFU/ml).

Data set [7] has as its system ZIKV Paraiba/2015. The data set is described as follows: Virus growth kinetics, ZIKV Paraiba/2015 in A549 cells. The data set is classed as cell-based, Zika virus. The protocol:
as §2, §3

Data set [8] relates to ZIKV-induced CPE in Vero cells. Put plainly: ZIKV-induced cytopathic effect (light microscope), Vero cells. The data set is classed as cell-based, African green monkey. The following applies: MOI 0.1, 48 h p.i., 25 μM and more clearly 250 μM. (In general: Protection from cytopathic effect is a common read-out in antiviral testing.)
Data set [9] has as its system ZIKV-induced CPE in A549 cells. The data set is described as follows: ZIKV-induced cytopathic effect (light microscope), A549 cells. The data set is classed as cell-based, human. The following applies: MOI 0.1, 48 h p.i., 25 μM and more clearly 250 μM.
The next data set relates to Vaccinia virus. The following applies: 30 mg/kg/day, ref Smee et al., 2010; cited from earlier work.
For another data set, the system named is ZIKV Uganda/1947. The data set is described as follows: Microplaque reduction assay, ZIKV Uganda/1947 in Vero cells.
The subject of data set [10] is caspase 3 and 7 activities. The data set is described as follows: Apoptosis assay (Caspase-Glo 3/7), ZIKV-infected Vero cells. As to conditions: 250 μM.
The subject of data set [11] is caspase 3 and 7 activities. Put plainly: Apoptosis assay (Caspase-Glo 3/7), ZIKV-infected A549 cells. The following applies: 250 μM.
In another data set the test system is ZIKV Nigeria/1968. The data set is described as follows: Microplaque reduction assay, ZIKV Nigeria/1968 in Vero cells.
In the next data set the test system is ZIKV Puerto Rico/2015. The data set is described as follows: Microplaque reduction assay, ZIKV Puerto Rico/2015 in Vero cells.
In data set [12] the test system is ZIKV French Polynesia/2013. The data set is described as follows: Microplaque reduction assay, ZIKV French Polynesia/2013 in Vero cells.
Data set [13] deals with ZIKV. Further details: method as in Yang et al., 2018. The following applies: SNB-19 cells; ref Yang et al., 2018; cited from earlier work.
Data set [14] has as its system ZIKV. Further details: method as in Yang et al., 2018. The following applies: ENV+ cells; ref Yang et al., 2018; cited from earlier work.
The subject of data set [15] is ZIKV. More on the design: method as in Kuivanen et al., 2017. As to conditions: human retinal pigment epithelial (RPE) cells; ref Kuivanen et al., 2017; cited from earlier work.
Data set [16] relates to ZIKV. Further details: method as in Bullard-Feibelman et al., 2017. As to conditions: Huh-7 cells; ref Bullard-Feibelman et al., 2017; cited from earlier work.
The subject of data set [17] is ZIKV. Further details: method as in Bullard-Feibelman et al., 2017. As to conditions: Jar cells; ref Bullard-Feibelman et al., 2017; cited from earlier work.
Setting [18] is: reading time not stated at the place (assay read at 36 and 72 h).

The structures appear in SMILES notation. Read-outs that look alike come from different tables or passages of the source. Where only a bound is given, the exact number is not on record here.

In general, CC50 refers to the concentration at which the toxic effect on the cells reaches its halfway point. The IC50 is the concentration needed to halve the response being measured. `CCOC(=O)c1c(CSc2ccccc2)n(C)c2cc(Br)c(O)c(CN(C)C)c12` [ARB, Arbidol]: the CC50 at 36 h in [1] is 74.7 ± 1.09 µM; in data set [2], 114.6 ± 1.08 µM. For the same compound, the CC50 at 72 h in data set [1] is 59.4 ± 1.1 µM; in [2], 91 ± 1.08 µM. The selectivity ratio at 36 h in the data set with ZIKV Paraiba/2015 [3] (post-treatment, 36 h) worked out at 4.11; in the data set on ZIKV Paraiba/2015 [4], 2.21. For the same compound, the IC50 in the data set on ZIKV Paraiba/2015 [3] (36 h) was found to be 18.2 ± 1.16 µM; with ZIKV Paraiba/2015 [4] it was 51.9 ± 1.08 µM.
Regarding `O=C(O)C1=CC(=C(c2ccc(O)c(C(=O)O)c2)c2ccc(O)c(C(=O)O)c2)C=CC1=O` [ATA, aurintricarboxylic acid], the CC50 at 36 h in data set [1] and in data set [2] was above 1000 µM in each case. Moreover, the CC50 at 72 h in [1] and in [2] was above 1000 µM throughout. For the same compound, the 50% cytotoxic concentration (CC50) in data set [1] (setting [18]) and in data set [2] (setting [18]) was above 1000 µM each time. Also, the “toxicity (cell viability)” value in the data set on Vero cells and with A549 cells was “did not observe any toxicity” throughout. Besides, the selectivity ratio at 36 h was 72.1 with ZIKV Paraiba/2015 [3] (post-treatment, 36 h) and 26.3 in the data set on ZIKV Paraiba/2015 [4]. The “SI (selective index, CC50/IC50)” value in the data set on ZIKV Paraiba/2015 [3] (Paraiba/2015, Vero cells, post-treatment, 36 h) is above 72.10. Further, the “SI (selective index), range in Vero cells” value in the data set on ZIKV Paraiba/2015 [3] (Vero cells, range over all ZIKV strains and pre-/post-treatment settings of this study) is reported as 56.98–95.24. Besides, the IC50 in the data set on ZIKV Paraiba/2015 [3] (36 h) stood at 13.9 ± 1.09 µM; in the data set with ZIKV Paraiba/2015 [4], 33.3 ± 1.13 µM; in the data set with ZIKV Paraiba/2015 [5] (pre-treatment 12 h before infection) it was 14.3 ± 1.06 µM; in the data set on ZIKV Paraiba/2015 [5] (pre-treatment 24 h before infection), 13.2 ± 1.05 µM; in the data set on ZIKV Paraiba/2015 [5] (pre-treatment 48 h before infection) it was 12.6 ± 1.02 µM; in the data set with ZIKV Paraiba/2015 [5] (pre-treatment 72 h before infection), 10.5 ± 1.05 µM. For the same compound, the half-maximal inhibitory concentration (IC50) was 15.1 ± 1.19 µM with ZIKV Uganda/1947 (Zika virus, Vero, 48 h); 16 ± 1.02 µM in the data set with ZIKV Nigeria/1968 (Zika virus, Vero, 60 h); 17.6 ± 1.16 µM in the data set with ZIKV Puerto Rico/2015 (Zika virus, Vero, 48 h); 13.9 ± 1.01 µM in data set [12] (Zika virus, Vero, 48 h). Also, the selectivity ratio at 12 h in the data set with ZIKV Paraiba/2015 [5] (African green monkey, pre-treatment 12 h, read-out: SI (selective index, CC50/IC50)) was above 69.8. In the data set on ZIKV Paraiba/2015 [5] (African green monkey, pre-treatment 24 h, read-out: SI (selective index, CC50/IC50)), the selectivity ratio at 24 h was above 75.9. Further, the selectivity ratio at 48 h with ZIKV Paraiba/2015 [5] (African green monkey, pre-treatment 48 h, read-out: SI (selective index, CC50/IC50)) is above 79.4; with ZIKV Uganda/1947 (African green monkey, Vero cells infected with ZIKV Uganda/1947) it was above 66.3; with ZIKV Puerto Rico/2015 (African green monkey, Vero cells infected with ZIKV Puerto Rico/2015) it was above 57; in data set [12] (African green monkey, Vero cells infected with ZIKV French Polynesia/2013), above 76.8. Further, the selectivity ratio at 72 h in the data set on ZIKV Paraiba/2015 [5] (African green monkey, pre-treatment 72 h, read-out: SI (selective index, CC50/IC50)) is above 95.2. Further, the “ZIKV replication (viral titer in supernatant)” value with ZIKV Paraiba/2015 [6] (MOI 0.1, 2.5 μM) is on record as “partial viral inhibition”; with ZIKV Paraiba/2015 [6] (MOI 0.1, 250 μM), “completely inhibited”; in the data set on ZIKV Paraiba/2015 [7] (MOI 0.1, 25 μM) it was “partial viral inhibition”; in the data set on ZIKV Paraiba/2015 [7] (MOI 0.1, 250 μM), “completely inhibited”. Also, the “ZIKV-induced CPE” value in data set [8] and in [9] was “able to prevent ZIKV-induced CPE” in each case. For the same compound, in the data set with Vaccinia virus, the “protection of mice from a lethal challenge” value was “did not protect”. The “caspase 3 and 7 induction as compared to mock-infected cells” value is 0.4 fold in data set [10] and 1.7 fold in data set [11]. The selectivity ratio at 60 h in the data set with ZIKV Nigeria/1968 (African green monkey, Vero cells infected with ZIKV Nigeria/1968) is above 62.6.
For the compound `CC[C@H]1CN2CCc3cc(OC)c(OC)cc3[C@@H]2C[C@@H]1C[C@H]1NCCc2cc(OC)c(OC)cc21` [emetine], the SI is on record as 9.84 in the data set with ZIKV [13] and 2.88 in the data set on ZIKV [14].
Consider `Nc1ccn([C@@H]2O[C@H](CO)[C@@H](O)C2(F)F)c(=O)n1` [gemcitabine], for which the SI in the data set on ZIKV [15] is listed as > 1,000.
Regarding `COC1=CC(c2cc3ccccc3[nH]2)=N/C1=C\c1[nH]c(C)cc1C` [obatoclax], the SI in the data set with ZIKV [15] is reported as 65.
In the case of `C[C@H]1C/C=C/Cc2cccc(O)c2C(=O)O[C@@H](C/C=C/NC(=O)C#Cc2ccccc2)C[C@H]1O` [saliphenylhalamide], the SI with ZIKV [15] is listed as above 200.
With `CC(C)OC(=O)[C@H](C)N[P@](=O)(OC[C@H]1O[C@@H](n2ccc(=O)[nH]c2=O)[C@](C)(F)[C@@H]1O)Oc1ccccc1` [sofosbuvir], the SI was above 52.63 in the data set with ZIKV [16] and above 90.9 in the data set on ZIKV [17].
